The values below are quoted from earlier work in patent US8680055B2, “Methods for decreasing steroidogenesis in prostate cancer cells” (University of Southern California, priority 2009, dated 2014).

The subject of one series is advanced CRPC. The settings on record: phase II trials.
Series [1] has as its system PCa resistant to multiple hormonal therapies. The settings on record: chemotherapy-naive men.

The structures appear in SMILES notation.

`CC(=O)N1CCN(c2ccc(OCC3COC(Cn4ccnc4)(c4ccc(Cl)cc4Cl)O3)cc2)CC1` (centres unmarked) [ketoconazole]: in the series with advanced CRPC, the “median duration of response” value was “up to 7 months” and the “response rate by PSA working group (PSAWG) criteria” value is given as 40-62%.

Regarding `CC(=O)O[C@H]1CC[C@@]2(C)C(=CC[C@@H]3[C@@H]2CC[C@]2(C)C(c4cccnc4)=CC[C@@H]32)C1` [abiraterone acetate], in series [1] (6 patients), the “patients with declines in PSA ≧90%” value is listed as 29%. In addition, the “patients with declines in PSA ≧50%” value in series [1] (12 patients) is on record as 57%. The “patients with declines in PSA ≧30%” value in series [1] (14 patients) is reported as 66%.
